Consider one compound from ChEMBL document CHEMBL4507319 (2021).

The target of experiment [1] is Serine/threonine-protein kinase A-Raf (Homo sapiens) (UniProt P10398). Briefly: A-Raf(h) Eurofins kinase panel. Conditions: Compound concentration 1.0 uM.
In experiment [2] the target is T1, Mitogen-activated protein kinase kinase kinase 5 (Homo sapiens) (UniProt Q99683).
T1 sequence (whole entry): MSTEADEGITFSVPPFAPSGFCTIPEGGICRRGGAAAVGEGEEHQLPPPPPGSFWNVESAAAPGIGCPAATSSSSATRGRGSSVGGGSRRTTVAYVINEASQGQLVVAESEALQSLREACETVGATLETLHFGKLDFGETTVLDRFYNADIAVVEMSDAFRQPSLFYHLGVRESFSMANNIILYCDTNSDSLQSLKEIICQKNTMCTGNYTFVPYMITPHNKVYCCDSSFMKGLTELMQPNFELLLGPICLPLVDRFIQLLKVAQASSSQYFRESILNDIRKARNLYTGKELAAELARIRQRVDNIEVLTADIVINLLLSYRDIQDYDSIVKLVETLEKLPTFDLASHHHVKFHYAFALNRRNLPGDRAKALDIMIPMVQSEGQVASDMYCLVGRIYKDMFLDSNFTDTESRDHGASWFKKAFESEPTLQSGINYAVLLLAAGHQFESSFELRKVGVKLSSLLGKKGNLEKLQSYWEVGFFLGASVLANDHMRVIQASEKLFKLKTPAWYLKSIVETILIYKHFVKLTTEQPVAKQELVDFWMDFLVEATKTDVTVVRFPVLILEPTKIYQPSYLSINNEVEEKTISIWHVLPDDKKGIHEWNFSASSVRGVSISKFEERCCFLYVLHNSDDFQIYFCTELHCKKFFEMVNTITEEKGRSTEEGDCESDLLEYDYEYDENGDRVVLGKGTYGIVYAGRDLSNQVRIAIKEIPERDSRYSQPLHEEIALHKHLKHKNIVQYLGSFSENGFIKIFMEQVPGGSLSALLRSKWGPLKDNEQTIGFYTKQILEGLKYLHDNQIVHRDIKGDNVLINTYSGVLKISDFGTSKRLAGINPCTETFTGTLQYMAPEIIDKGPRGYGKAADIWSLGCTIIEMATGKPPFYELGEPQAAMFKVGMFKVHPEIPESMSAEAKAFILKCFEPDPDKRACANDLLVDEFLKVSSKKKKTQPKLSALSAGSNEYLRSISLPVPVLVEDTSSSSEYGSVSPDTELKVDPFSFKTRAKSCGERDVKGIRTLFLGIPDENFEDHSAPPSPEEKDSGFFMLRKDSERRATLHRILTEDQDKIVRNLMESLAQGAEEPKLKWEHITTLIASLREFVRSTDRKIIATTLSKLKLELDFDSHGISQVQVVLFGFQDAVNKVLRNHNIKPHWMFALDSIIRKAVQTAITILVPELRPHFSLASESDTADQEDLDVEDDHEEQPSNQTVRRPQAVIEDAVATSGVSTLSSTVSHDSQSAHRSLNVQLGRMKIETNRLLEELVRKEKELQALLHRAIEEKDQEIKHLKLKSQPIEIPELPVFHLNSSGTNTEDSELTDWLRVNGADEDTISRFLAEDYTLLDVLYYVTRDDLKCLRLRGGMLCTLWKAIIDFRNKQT
The experiment is described as follows: ASK1(h) Eurofins kinase panel. Conditions: Compound concentration 1.0 uM.

Experiment [3] addresses Calcium/calmodulin-dependent protein kinase type II subunit alpha (Homo sapiens) (UniProt Q9UQM7). The experiment is described as follows: CaMKIIalpha(h) Eurofins kinase panel. Conditions: Compound concentration 1.0 uM.
The target in experiment [4] is Serine/threonine-protein kinase 35 (Homo sapiens) (UniProt Q8TDR2). Briefly: CLIK1(h) Eurofins kinase panel. Conditions: Compound concentration 1.0 uM.
For experiment [5], the target named is T2, Ephrin type-A receptor 1 (Homo sapiens) (UniProt P21709).
T2 sequence (whole entry): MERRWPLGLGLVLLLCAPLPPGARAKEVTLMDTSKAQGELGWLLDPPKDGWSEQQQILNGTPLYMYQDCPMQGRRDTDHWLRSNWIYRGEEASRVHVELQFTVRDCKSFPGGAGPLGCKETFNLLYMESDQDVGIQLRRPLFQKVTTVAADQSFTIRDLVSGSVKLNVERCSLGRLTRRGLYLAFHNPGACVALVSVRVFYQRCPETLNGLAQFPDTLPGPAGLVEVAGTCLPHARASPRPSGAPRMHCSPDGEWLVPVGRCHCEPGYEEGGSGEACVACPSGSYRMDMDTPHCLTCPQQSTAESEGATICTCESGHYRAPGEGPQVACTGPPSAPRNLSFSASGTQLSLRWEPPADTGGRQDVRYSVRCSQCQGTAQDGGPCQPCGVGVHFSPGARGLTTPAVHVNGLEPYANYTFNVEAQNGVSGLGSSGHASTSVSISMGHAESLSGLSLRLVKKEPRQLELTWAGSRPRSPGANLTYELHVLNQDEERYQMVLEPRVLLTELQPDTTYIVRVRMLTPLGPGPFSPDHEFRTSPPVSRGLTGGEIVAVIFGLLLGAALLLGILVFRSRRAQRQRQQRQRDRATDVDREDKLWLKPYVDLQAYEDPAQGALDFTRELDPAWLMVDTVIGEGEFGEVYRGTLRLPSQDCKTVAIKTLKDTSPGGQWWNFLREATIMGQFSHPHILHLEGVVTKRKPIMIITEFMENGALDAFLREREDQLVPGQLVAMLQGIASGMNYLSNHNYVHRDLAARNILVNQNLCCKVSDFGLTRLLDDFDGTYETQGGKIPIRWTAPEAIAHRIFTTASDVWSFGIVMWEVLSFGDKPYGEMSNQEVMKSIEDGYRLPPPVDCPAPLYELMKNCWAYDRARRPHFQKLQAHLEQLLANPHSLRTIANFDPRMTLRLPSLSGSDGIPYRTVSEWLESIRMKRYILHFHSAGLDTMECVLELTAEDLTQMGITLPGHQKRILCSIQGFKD
Briefly: EphA1(h) Eurofins kinase panel. Conditions: Compound concentration 1.0 uM.

For experiment [6], the target named is Ephrin type-A receptor 7 (Homo sapiens) (UniProt Q15375). Briefly: EphA7(h) Eurofins kinase panel. Conditions: Compound concentration 1.0 uM.
In experiment [7] the target is Tyrosine-protein kinase Lyn (Homo sapiens) (UniProt P07948). Briefly: Lyn(h) Eurofins kinase panel. Conditions: Compound concentration 1.0 uM.
Experiment [8] concerns the target Protein kinase C eta type (Homo sapiens) (UniProt P24723). Briefly: PKCeta (h) Eurofins kinase panel. Conditions: Compound concentration 1.0 uM.
Experiment [9] deals with PI3-kinase p110-alpha/p85-alpha (Homo sapiens) (UniProt P27986+P42336). Briefly: PI3 Kinase(p110a/p85a)(h) Eurofins kinase panel. In kind it is protein-complex assay. Conditions: Compound concentration 1.0 uM.
A further experiment has as its system VCaP. The experiment is described as follows: VCaP cell line Proliferation assay. It counts as functional, Homo sapiens. Conditions: time 6 day.
For experiment [10], the target named is Ribosomal protein S6 kinase alpha-3 (Homo sapiens, UniProt P51812). Conditions: Compound concentration 1.0 uM.
Chain of Ribosomal protein S6 kinase alpha-3 (P51812 whole entry): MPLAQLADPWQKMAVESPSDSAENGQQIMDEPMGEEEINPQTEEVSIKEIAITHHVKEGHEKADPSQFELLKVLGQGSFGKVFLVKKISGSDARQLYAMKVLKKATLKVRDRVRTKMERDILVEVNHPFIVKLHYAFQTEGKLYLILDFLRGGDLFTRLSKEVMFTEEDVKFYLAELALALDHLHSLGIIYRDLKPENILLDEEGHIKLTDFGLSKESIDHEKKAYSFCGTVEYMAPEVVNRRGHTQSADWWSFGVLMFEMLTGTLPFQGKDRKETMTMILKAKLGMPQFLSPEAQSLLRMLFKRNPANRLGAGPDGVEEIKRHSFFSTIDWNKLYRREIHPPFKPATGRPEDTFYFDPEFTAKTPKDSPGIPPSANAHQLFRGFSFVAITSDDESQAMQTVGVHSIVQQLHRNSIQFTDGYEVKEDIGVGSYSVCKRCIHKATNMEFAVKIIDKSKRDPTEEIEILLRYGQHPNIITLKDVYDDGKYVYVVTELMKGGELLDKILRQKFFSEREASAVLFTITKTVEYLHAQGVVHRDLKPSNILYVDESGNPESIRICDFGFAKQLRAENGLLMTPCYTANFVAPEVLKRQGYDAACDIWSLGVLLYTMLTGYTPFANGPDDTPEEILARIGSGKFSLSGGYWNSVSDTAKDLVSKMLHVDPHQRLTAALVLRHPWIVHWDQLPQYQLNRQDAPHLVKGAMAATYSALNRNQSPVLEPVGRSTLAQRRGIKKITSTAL

Chain of Calcium/calmodulin-dependent protein kinase type II subunit alpha (Homo sapiens) (Q9UQM7 whole entry): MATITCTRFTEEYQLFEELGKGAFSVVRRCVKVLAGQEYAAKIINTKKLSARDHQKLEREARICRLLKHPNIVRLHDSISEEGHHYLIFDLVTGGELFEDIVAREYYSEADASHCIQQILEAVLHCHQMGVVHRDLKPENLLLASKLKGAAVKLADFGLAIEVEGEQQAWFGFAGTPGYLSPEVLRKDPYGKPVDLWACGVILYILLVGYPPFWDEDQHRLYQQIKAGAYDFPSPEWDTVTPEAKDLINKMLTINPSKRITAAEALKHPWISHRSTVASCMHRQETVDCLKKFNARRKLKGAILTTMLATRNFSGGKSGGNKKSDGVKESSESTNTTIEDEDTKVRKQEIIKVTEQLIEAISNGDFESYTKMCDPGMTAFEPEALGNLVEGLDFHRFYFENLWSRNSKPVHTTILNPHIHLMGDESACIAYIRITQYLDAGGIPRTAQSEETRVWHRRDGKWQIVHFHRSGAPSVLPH
Chain of Protein kinase C eta type (Homo sapiens) (P24723 whole entry): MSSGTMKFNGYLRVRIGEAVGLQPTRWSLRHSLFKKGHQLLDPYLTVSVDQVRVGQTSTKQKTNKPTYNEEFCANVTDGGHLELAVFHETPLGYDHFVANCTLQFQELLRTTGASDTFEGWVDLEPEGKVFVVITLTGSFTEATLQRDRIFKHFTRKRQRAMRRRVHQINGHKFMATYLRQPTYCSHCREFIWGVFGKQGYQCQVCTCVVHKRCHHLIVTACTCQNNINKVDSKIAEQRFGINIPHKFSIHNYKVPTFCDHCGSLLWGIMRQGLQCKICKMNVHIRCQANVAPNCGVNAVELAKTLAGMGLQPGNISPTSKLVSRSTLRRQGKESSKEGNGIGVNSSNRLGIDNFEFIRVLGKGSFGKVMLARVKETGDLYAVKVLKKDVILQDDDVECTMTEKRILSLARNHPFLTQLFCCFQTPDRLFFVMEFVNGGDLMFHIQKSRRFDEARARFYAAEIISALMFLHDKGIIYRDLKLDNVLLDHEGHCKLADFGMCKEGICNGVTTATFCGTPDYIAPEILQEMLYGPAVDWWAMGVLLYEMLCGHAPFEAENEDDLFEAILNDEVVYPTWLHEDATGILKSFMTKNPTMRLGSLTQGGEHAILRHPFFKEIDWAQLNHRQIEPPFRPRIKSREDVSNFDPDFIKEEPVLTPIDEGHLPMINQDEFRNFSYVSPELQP
Chain of Ephrin type-A receptor 7 (Homo sapiens) (Q15375 28-998 limits assumed): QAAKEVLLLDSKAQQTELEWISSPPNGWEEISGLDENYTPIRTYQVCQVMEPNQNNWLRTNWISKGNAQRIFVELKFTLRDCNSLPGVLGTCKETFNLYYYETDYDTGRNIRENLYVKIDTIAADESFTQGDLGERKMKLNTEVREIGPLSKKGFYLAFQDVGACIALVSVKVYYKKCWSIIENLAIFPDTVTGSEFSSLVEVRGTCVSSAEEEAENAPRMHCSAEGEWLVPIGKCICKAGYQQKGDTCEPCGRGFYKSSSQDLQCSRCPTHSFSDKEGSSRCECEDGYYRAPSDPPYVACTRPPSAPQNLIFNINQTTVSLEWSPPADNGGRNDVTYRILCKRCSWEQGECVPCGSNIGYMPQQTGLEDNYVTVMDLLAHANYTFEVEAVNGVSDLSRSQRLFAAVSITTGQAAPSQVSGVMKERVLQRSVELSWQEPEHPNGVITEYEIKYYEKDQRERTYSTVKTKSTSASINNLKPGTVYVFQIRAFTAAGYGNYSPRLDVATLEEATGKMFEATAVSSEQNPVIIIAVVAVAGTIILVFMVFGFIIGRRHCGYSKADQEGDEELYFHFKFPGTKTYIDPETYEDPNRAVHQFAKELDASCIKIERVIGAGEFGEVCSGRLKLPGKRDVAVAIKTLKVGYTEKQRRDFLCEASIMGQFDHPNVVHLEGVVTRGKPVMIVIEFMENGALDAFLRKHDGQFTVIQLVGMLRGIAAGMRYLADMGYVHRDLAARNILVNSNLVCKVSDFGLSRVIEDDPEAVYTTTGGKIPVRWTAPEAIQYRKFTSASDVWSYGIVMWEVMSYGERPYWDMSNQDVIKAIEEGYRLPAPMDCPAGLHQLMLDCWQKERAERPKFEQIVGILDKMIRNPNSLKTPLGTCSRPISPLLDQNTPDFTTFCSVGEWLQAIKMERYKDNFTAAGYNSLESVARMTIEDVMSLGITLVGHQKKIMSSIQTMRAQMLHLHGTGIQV
Chain of Serine/threonine-protein kinase 35 (Homo sapiens) (Q8TDR2 whole entry): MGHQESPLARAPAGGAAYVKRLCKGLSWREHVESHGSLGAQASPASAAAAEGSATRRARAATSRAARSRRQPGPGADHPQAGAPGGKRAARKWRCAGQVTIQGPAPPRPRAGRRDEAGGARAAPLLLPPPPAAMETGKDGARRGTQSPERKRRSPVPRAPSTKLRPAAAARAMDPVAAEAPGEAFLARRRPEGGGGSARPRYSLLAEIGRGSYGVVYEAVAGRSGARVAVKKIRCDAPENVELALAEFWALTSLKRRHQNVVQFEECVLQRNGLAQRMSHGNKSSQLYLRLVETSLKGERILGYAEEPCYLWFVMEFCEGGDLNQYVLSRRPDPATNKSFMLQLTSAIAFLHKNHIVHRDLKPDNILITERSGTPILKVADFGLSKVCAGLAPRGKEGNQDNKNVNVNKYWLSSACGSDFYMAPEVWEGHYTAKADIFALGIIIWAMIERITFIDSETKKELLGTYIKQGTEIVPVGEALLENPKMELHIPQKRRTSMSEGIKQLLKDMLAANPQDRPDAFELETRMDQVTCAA
Chain of Tyrosine-protein kinase Lyn (Homo sapiens) (P07948 2-512 limits assumed): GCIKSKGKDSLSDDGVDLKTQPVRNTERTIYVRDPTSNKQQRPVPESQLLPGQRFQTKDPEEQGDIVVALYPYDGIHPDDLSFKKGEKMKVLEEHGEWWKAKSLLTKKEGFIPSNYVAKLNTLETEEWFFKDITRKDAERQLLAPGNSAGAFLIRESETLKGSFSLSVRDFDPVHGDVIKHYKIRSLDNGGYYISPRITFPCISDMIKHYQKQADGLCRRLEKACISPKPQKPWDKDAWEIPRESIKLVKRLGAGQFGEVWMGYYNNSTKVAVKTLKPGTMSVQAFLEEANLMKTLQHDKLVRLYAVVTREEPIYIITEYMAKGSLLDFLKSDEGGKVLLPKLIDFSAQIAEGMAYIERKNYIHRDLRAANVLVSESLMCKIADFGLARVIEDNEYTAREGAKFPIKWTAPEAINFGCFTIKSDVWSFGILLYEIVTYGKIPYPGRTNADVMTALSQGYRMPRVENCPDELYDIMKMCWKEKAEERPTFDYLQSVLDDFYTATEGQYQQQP
Chain of Serine/threonine-protein kinase A-Raf (Homo sapiens) (P10398 whole entry): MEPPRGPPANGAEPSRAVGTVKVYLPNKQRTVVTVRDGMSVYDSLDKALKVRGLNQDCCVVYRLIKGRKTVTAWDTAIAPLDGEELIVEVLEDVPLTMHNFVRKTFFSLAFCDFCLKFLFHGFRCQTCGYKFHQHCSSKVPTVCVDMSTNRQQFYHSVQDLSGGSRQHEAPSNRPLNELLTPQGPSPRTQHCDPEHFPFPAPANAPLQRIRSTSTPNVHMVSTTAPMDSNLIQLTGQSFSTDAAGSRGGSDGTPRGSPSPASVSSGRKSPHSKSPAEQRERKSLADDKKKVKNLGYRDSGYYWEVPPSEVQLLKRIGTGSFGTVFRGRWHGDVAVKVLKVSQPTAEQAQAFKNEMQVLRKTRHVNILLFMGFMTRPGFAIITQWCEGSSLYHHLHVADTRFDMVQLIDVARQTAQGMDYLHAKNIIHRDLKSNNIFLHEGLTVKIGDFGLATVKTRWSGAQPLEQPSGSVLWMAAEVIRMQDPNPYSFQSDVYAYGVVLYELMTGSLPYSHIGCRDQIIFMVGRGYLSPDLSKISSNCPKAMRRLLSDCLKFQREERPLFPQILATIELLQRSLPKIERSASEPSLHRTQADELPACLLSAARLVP

For the compound `CCc1ccccc1C(=O)Nc1n[nH]c2c(C)c(F)c(C3C(C#N)=C(C)N(C)C(C)=C3C#N)cc12` [BAY-3827], the % residual kinase activity in experiment [1] was 78%; in experiment [2] it was 99%; in experiment [3], 81%; in experiment [4] it was 80%; in experiment [5], 98%; in experiment [6], 91%. Moreover, the % residual kinase activity in [7] is 110%; in experiment [8], 92%; in [9], 99%; in [10], 0%. Besides, the “Cell Proliferation IC50” value in the experiment on VCaP was 1.71 µM.
